# In patent US20230348362A1, “LIPID COMPOUNDS AND LIPID NANOPARTICLE COMPOSITIONS” (Suzhou Abogen Biosciences Co., Ltd., priority 2021, published 2023):
# Tests used:
# [1] = Encapsulation efficiency of lipid nanoparticles, Quant-it Ribogreen RNA assay; format: physicochemical; details: LNP of lipid/DSPC/cholesterol/PEG-lipid 50:10:38.5:1.5 encapsulating hEPO mRNA
# Experimental: (§1) Briefly, a cationic lipid provided herein, DSPC, cholesterol, and PEG-lipid were solubilized in ethanol at a molar ratio of 50:10:38.5:1.5, and mRNA were diluted in 10 to 50 mM citrate buffer, pH=4. The LNPs were prepared at a total lipid to mRNA weight ratio of approximately 10:1 to 30:1 by mixing the ethanolic lipid solution with the aqueous mRNA solution at a volume ratio of 1:3 using a microfluidic apparatus, total flow rate ranging from 9-30 mL/min. Ethanol were thereby removed and replaced by DPBS using dialysis. Finally, the lipid nanoparticles were filtered through a […] sterile filter.
# (§2) Lipid nanoparticle size were determined by dynamic light scattering using a Malvern Zetasizer Nano ZS (Malvern UK) using a […] backscatter detection mode. The encapsulation efficiency of lipid nanoparticles were determined using a Quant-it Ribogreen RNA quantification assay kit (Thermo Fisher Scientific, UK) according to the manufacturer's instructions.
# [2] = Lipid nanoparticle size and polydispersity by dynamic light scattering; format: physicochemical; details: LNP of lipid/DSPC/cholesterol/PEG-lipid 50:10:38.5:1.5 encapsulating hEPO mRNA
# Experimental: as §1, §2
SMILES,Encapsulation Efficiency [1] [%],polydispersity [2],size (nm) [2] [nm]
CCCCCCCCC(CCCCCC)COC(=O)CCCCCN(CCO)CCN(CCCCCC(=O)OCC(CCCCCC)CCCCCCCC)C1CC1 (stereo not drawn) [Compound 9],93.9,0.181,55.12
CCCCCCCCC(CCCCCC)CNC(=O)CCCCCN(CCCCN(CCO)CCCCC(COC(=O)CCCCCCC)COC(=O)CCCCCCC)C1CCCC1 (stereo not drawn) [Compound 196],86.33,0.18,104.1
CCCCCCCCCCCOC(=O)CCCCCN(CCN(CCO)CCOCCC(=O)OCC(CCCCCCCC)CCCCCCCC)C1CCCCC1 [Compound 115],90.22,0.058,97.51
CCCCCCCCC(CCCCCC)CNC(=O)CCCCCN(CCO)CCN(CCCCC(COC(=O)CCCCCCC)COC(=O)CCCCCCC)C1CCCCC1 (stereo not drawn) [Compound 140],89.74,0.051,71.01
CCCCCCCCC(CCCCCC)CNC(=O)CCCCCN(CC)CCN(CCO)CCCCC(COC(=O)CCCCCCC)COC(=O)CCCCCCC (stereo not drawn) [Compound 159],90.71,0.080,77.72
CCCCCCCCC(CCCCCC)COC(=O)CCCCCN(CC=C(C)C)CCN(CCO)CCCCC(COC(=O)CCCCCCC)COC(=O)CCCCCCC (stereo not drawn) [Compound 148],90.40,0.081,64.31
CCCCCCCCCC(=O)OCC(CCCCN(CCO)CCN(CCCCC(COC(=O)CCCCCCCCC)COC(=O)CCCCCCCCC)C1CCC1)COC(=O)CCCCCCCCC [Compound 167],91.97,0.128,69.47
CCCCCCCCCCCOC(=O)CCCCCN(CCN(CCO)CCCCCC(=O)OCC(CCCCCCC)CCCCCCC)C1CCCCC1 [Compound 22],95.5,0.047,87.7
CCCCCCCCCCCOC(=O)CCCCCN(CCN(CCO)CCCCCC(=O)OCC(CCCCCCCC)CCCCCCCC)C1CCC1 [Compound 106],92.14,0.067,67.63
CCCCCCCCCCCCC(O)CN(CCCCCC(=O)OCC(CCCCCC)CCCCCCCC)CCN(CCCCCC(=O)OCCCCCCCCCCC)C1CCC1 (stereo not drawn) [Compound 2],86.6,0.066,64.03
CCCCCCCCC(CCCCCC)CNC(=O)CCN(CCO)CCN(CCCCC(COC(=O)CCCCCCC)COC(=O)CCCCCCC)C1CCCCCC1 (stereo not drawn) [Compound 212],87.31,0.048,122.1
CCCCCCCCC(CCCCCCCC)CC(=O)NCCCCCN(CCN(CCO)CCCCCOC(=O)CC(CCCCCCCC)CCCCCCCC)C1CCCCCCC1 [Compound 75],92.59,0.037,76.62
CCCCC/C=C\C/C=C\CCCCCCCC(=O)OCCCCCN(CCN(CCO)CCCCCC(=O)OCC(CCCCCCCC)CCCCCCCC)C1CCCCC1 [Compound 108],91.83,0.068,67.69
CCCCCCCC(=O)OCC(CCCCN(CCO)CCN(CCCCC(COC(=O)CCCCCCC)COC(=O)CCCCCCC)C1CCCCCC1)COC(=O)CCCCCCC [Compound 160],86.18,0.096,86.16
CCCCCCCCC(CCCCCC)COC(=O)CCCCCN(CCO)CCN(CCCCC(COC(=O)CCCCCCC)COC(=O)CCCCCCC)C1CCCCC1 (stereo not drawn) [Compound 139],87.81,0.076,59.97
CCCCCCCCCCCOC(=O)CCCCCN(CC=C(C)C)CCN(CCO)CCCCCC(=O)OCC(CCCCCCCC)CCCCCCCC [Compound 119],92.21,0.087,69.75
CCCCCCCCC(CCCCCCCC)CNC(=O)CCCCCN1CCC(N(CCO)CCCCCC(=O)OCC(CCCCCCCC)CCCCCCCC)CC1 [Compound 171],96.23,0.076,76.26
CCCCCCCCC(CCCCCC)CNC(=O)CCN(CCO)CCN(CCCCC(COC(=O)CCCCCCC)COC(=O)CCCCCCC)C1CCCCC1 (stereo not drawn) [Compound 211],84.88,0.035,112.6
CCCCCCCCC(CCCCCCCC)COC(=O)CCCCCN(CCO)Cc1ccc(CN(CCCCCC(=O)OCC(CCCCCCCC)CCCCCCCC)C2CCC2)cc1 [Compound 88],92.56,0.080,71.00
CCCCCCCCCCCOC(=O)CCCCCN(CCN(CCO)CCCCCC(=O)OCC(CCCCCCCC)CCCCCCCC)C1CC1 [Compound 129],90.52,0.069,58.08
CCCCCCCCC(CCCCCC)CNC(=O)CCCCCN(CCO)CCN(CCCCC(COC(=O)CCCCCCC)COC(=O)CCCCCCC)C1CCCCCCC1 (stereo not drawn) [Compound 145],88.63,0.047,68.91
CCCCCCCCCCCOC(=O)CCCCCN(CC=C(C)C)CCN(CCCCCC(=O)OCC(CCCCCCCC)CCCCCCCC)C1CCC(O)CC1 (stereo not drawn) [Compound 125],92.89,0.035,90.98
CCCCCCCCC(CCCCCCCC)CNC(=O)CCCCCN(CCO)CCN(CCCCCC(=O)NCC(CCCCCCCC)CCCCCCCC)C1CCCCCC1 [Compound 14],89.8,0.118,60.06
CCCCCCCCC(CCCCCC)CNC(=O)CCCCCN(CC=C(C)C)CCN(CCO)CCCCC(COC(=O)CCCCCCC)COC(=O)CCCCCCC (stereo not drawn) [Compound 149],92.71,0.043,78.75
CCCCCCCCCCCC(=O)OCCCCCN(CCN(CCO)CCCCCOC(=O)CC(CCCCCCCC)CCCCCCCC)C1CCCC1 [Compound 93],92.84,0.064,76.12
CCCCCCCCCCCOC(=O)CCCCCN1CCC(N(CCO)CCCCCC(=O)OCC(CCCCCCCC)CCCCCCCC)CC1 [Compound 173],95.29,0.068,61.61
